From US20190300845A1, “SEQUENTIAL ADDITION OF MOLECULAR GERMINANTS TO BACTERIAL SPORES” (NOVOZYMES BIOAG A/S, priority 2016, published 2019)

Tests used:
[1] = system: spores from Bacillus megaterium strain SB3112; experiment: Germinant testing by decrease in relative OD580; assay type: cell-based; details: amino acid along with KBr and D-glucose; each 3 mM
[2] = system: Bacillus pumilus strain SB3189 spores; experiment: Sequential germinant addition, germination by dipicolinic acid (DPA) release (Tb-DPA fluorescence); assay type: cell-based
Experimental: (§1) Germination of spores in these studies was determined by measuring dipicolinic acid (DPA). DPA is about 10% of the mass of endospores, which is generally released when germination occurs. Boiling spores generally releases all of the DPA (used as a positive control). DPA release was detected using terbium chloride (TbCl3), as described below.
(§2) To perform the germination assays, 30 μl of spores were added to wells of a 96-well flat-bottom microtiter plate. Subsequently, 35 μl of a 250 μM TbCl3 stock was added. At time 0, 85 μl of a D-fructose solution was added, to give a final concentration of 10 mM D-fructose. The solution was mixed by pipetting, the microtiter plate was placed into a plate reader (Synergy H4 Multi-Mode Reader, Bio-Tek), and the sample wells were measured for presence of a fluorescent Tb-DPA product over time. Tb-DPA is excited at 270 nm and emits at 545 nm. All experimental samples were tested in triplicate. Baseline controls for each sample were generated by omitting L-alanine and these were performed in duplicate. All sample wells were measured immediately after D-fructose was added (time 0) and then over time. For each time point, the data were normalized to values for the spores that had been boiled for two hours to force 100% release of DPA from the spores.
The experiment was generally performed as described in Example 3. SB3189 spores were treated with various concentrations of L-alanine (0.0 mM, 0.5 mM, 1.0 mM, 2.0 mM, 3.0 mM, 4.0 mM, 5.0 mM, 6.0 mM, 7.0 mM, 8.0 mM, 9.0 mM, or 10.0 mM) for 24 hours at 4° C. […] D-fructose (10 mM) was then added to the L-alanine-treated spores (this was time 0) and DPA levels were measured over time.

[3] = system: Bacillus subtilis strain SB3086 spores; experiment: as above; assay type: cell-based
Experimental: Bacterial spores from Bacillus subtilis strain SB3086 were prepared as described in the first paragraph of Example 1. The spore preparations were washed in sterile 4° C. water by centrifugation (10,000×g, 1 minute), aspirating the supernatant from the pellet, and suspending the spore pellet in water. This was performed three consecutive times. Optical densities of washed spore preparations were measured in sterile water at 4° C. using a Synergy H4 Multi-Mode Reader (Bio-Tek). The spore preparations were set to 5 OD600 units per ml. By phase-contrast microscopy, 99% of the particles in the samples appeared to be ungerminated spores.
The spores were then treated with 1 mM of L-alanine for 24 hours at 4° C. […] In one experiment, spores that had been treated with 1 mM L-alanine for 24 hours were washed in water to remove the L-alanine. Negative controls were not treated with L-alanine. Spores to be used as positive controls were boiled for 2 hours to release dipicolinic acid (see below).
as §1, §2

[4] = system: spores from Bacillus pumilus strain SB3189; experiment: Germinant testing by decrease in relative OD580; assay type: cell-based; details: substance alone, at a concentration of 3 mM
[5] = system: spores from Bacillus amyloliquefaciens strain SB3615; experiment: Germinant testing by decrease in relative OD580
[6] = system: Bacillus megaterium strain SB3112 spores; experiment: KBr pretreatment, germination by dipicolinic acid (DPA) release (Tlag, Gmax); assay type: cell-based
Experimental: as §1, §2
These studies were generally performed as described in Example 3. SB3112 spores, heat-activated or not heat-activated (not heat-activated are called “native”), were treated with 0.5, 3.0, or 10.0 mM KBr overnight at either 4° or 22° C. […] The time at which the subsequent addition was made to the spores was considered time 0. DPA concentration was measured over time.
To facilitate comparison of the different samples, values for Tlag and Gmax were calculated for each spore treatment. Tlag is the time after exposure to germinants that a population of spores begins to rapidly release DPA into the environment. Tlag indicates, in part, how rapidly a population of spores responds to germinants. Gmax is the maximum percentage of DPA that a sample releases during an experiment, divided by the DPA released by the sample when boiled. Gmax is proportional to the percentage of spores in a population that germinates.

With `CC(C)C[C@H](N)C(=O)O` [L-leucine] the “Germination of spores (decrease in relative OD580)” value [1] was “caused germination of the spores”.

In the case of `N[C@@H](Cc1ccccc1)C(=O)O` [L-phenylalanine], the “Germination of spores (decrease in relative OD580)” value [1] is reported as “caused germination of the spores”.

`O=C(O)[C@@H]1CCCN1` [L-proline] was tested, and the “Germination of spores (decrease in relative OD580)” value [1] was “caused germination of the spores”.

`O=C(CO)[C@@H](O)[C@H](O)[C@H](O)CO` [D-fructose] was tested, and the “Germination (DPA release) in presence of D-fructose” value ([2]; 10 mM D-fructose, spores not treated with L-alanine (0 mM)) was “did not germinate”, the “Germination (DPA release) with D-fructose” value ([3]; 10 mM D-fructose, spores not treated with L-alanine) was “did not germinate” and the “Germination of spores (decrease in relative OD580)” value [4] was “None”.

For `OC[C@H]1O[C@@](CO)(O[C@H]2O[C@H](CO)[C@@H](O)[C@H](O)[C@H]2O)[C@@H](O)[C@@H]1O` [sucrose], the “Germination of spores (decrease in relative OD580)” value [4] was “None”.

In the case of `C[C@H](N)C(=O)O` [L-alanine], the “Germination of spores (decrease in relative OD580)” value [1] is reported as “caused germination of the spores”, the “Germination due to the L-alanine treatment, determined by microscopy” value ([2]; 0.5-10.0 mM L-alanine for 24 hours at 4° C., before D-fructose) is reported as “no germination” and the “Extent of germination versus amount of L-alanine” value ([2]; 0.5 to 10 mM L-alanine pretreatment, then 10 mM D-fructose) is reported as “increased as the amount of L-alanine increased”. For the same compound, the “Germination (DPA release) on addition of D-fructose” value ([2]; spores treated with L-alanine 24 hours, then D-fructose (10 mM) at time 0) was “caused germination”, the “Germination as a result of the L-alanine treatment, determined by microscopy” value ([3]; 1 mM L-alanine for 24 hours at 4° C., before D-fructose) was “No germination” and the “Germination (DPA release) when D-fructose was added” value ([3]; L-alanine 24 hours, washed out prior to addition of D-fructose) was “did not germinate”. For the same compound, the “Germination (DPA release) when D-fructose was added” value ([3]; spores treated with 1 mM L-alanine for 24 hours, then 10 mM D-fructose) was “germinated”, the Molecules causing germination ([5]; strain SB3615, each substance 3 mM) was “L-alanine” and the “Germination of spores (decrease in relative OD580)” value ([5]; substance alone, 3 mM, heat-activated spores, 37° C., 70 minutes) was “could cause germination”. The “Germination of spores (decrease in relative OD580)” value [4] was “None”.

`[Br-].[K+]` [KBr] showed a Gmax ([6]; heat-activated spores, 0.5 mM KBr overnight at 4° C. before full germinant solution) of 92%, a Gmax ([6]; heat-activated spores, 0.5 mM KBr overnight at 22° C. before full germinant solution) of 65% and a Gmax ([6]; heat-activated spores, 3.0 mM KBr overnight at 4° C. before full germinant solution) of 123%. It also gave a Gmax ([6]; heat-activated spores, 3.0 mM KBr overnight at 22° C. before full germinant solution) of 65%, a Gmax ([6]; heat-activated spores, 10.0 mM KBr overnight at 4° C. before full germinant solution) of 85% and a Gmax ([6]; heat-activated spores, 10.0 mM KBr overnight at 22° C. before full germinant solution) of 61%. The “Gmax as compared to spores not pretreated with KBr” value ([6]; heat-treated spores, at 22° C., 0.5, 3.0, or 10.0 mM KBr) was “decreased”, the “Percentage of spores that germinated (Gmax) as compared to spores not pretreated with KBr” value ([6]; native or heat-treated spores, at 4° C., 3.0 or 10.0 mM KBr) was “increased” and the Gmax ([6]; native spores, 0.5 mM KBr overnight at 4° C. before full germinant solution) was 24%. The Gmax ([6]; native spores, 0.5 mM KBr overnight at 22° C. before full germinant solution) was 62%, the Gmax ([6]; native spores, 3.0 mM KBr overnight at 4° C. before full germinant solution) was 31% and the Gmax ([6]; native spores, 3.0 mM KBr overnight at 22° C. before full germinant solution) was 96%. The Gmax ([6]; native spores, 10.0 mM KBr overnight at 4° C. before full germinant solution) was 29%, the Gmax ([6]; native spores, 10.0 mM KBr overnight at 22° C. before full germinant solution) was 103% and the “Tlag as compared to spores not pretreated with KBr” value ([6]; some samples: 4° C. native spores 3.0 or 10.0 mM KBr, 22° C. heat-activated spores 0.5 mM KBr) was “different”.

In the case of `N[C@@H](Cc1c[nH]cn1)C(=O)O` [L-histidine], the “Germination of spores (decrease in relative OD580)” value [1] is reported as “caused germination of the spores”.

With `CC[C@H](C)[C@H](N)C(=O)O` [L-isoleucine] the “Germination of spores (decrease in relative OD580)” value [1] was “caused germination of the spores”.

In the case of `N[C@@H](CS)C(=O)O` [L-cysteine], the “Germination of spores (decrease in relative OD580)” value [4] is reported as “None”.
